The structures appear in SMILES notation. Where a SMILES comes first, the peptide text is derived from it. [ ]: non-standard residue; d: D form. The star is where a group is joined. ξ: configuration not given here. FITC = O=C1OC2(c3ccc(O)cc3Oc3cc(O)ccc32)c2ccc(NC(=S)*)cc21; Phe(4-NO2) = N[C@@H](Cc1ccc([N+](=O)[O-])cc1)C(=O)O; ξAla(4-thiazolyl) = NC(Cc1cscn1)C(=O)O; pS = N[C@@H](COP(=O)(O)O)C(=O)O; β3hS = N[C@@H](CO)CC(=O)O; Nva = CCC[C@H](N)C(=O)O; ξβ3hS = NC(CO)CC(=O)O; βAla = NCCC(=O)O

The target of this assay is T1, 14-3-3γ (Homo sapiens, UniProt P61981).
T1 construct: made in house; host or cells: E. coli NiCo21 (DE3)
T1 sequence (P61981 1-247): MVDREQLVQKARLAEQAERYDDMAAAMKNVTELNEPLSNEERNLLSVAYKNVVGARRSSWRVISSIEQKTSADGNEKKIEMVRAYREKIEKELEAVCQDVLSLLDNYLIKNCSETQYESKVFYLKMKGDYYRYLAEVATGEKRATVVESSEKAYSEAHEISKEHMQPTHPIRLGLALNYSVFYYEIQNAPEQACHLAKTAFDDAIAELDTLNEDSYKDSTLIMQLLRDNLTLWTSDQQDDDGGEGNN
The assay is described as follows: Fluorescence anisotropy (FA) binary binding study: 14-3-3 titrated to fluorescein-labelled peptide. The note with it: for ΔΔG of point mutation (FA): relative to 1, mean ± SD, SD; for Affinity Kd / Kd: Table S4, point-mutated peptides; for Affinity Kd: 10 nM FITC-labelled peptide; for Kd: 14-3-3 titrated to 10 nM FITC-labelled peptide, HEPES pH 7.4, room temperature, 4PL fit, read-out: Affinity Kd; for ΔG (FA): Table S1. The method, boiled down: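 N-terminal His6-tagged full-length human 14-3-3γ expressed in E. coli, Ni-NTA purified and dialyzed into 25 mM HEPES pH 8.0, 100 mM NaCl, 10 mM MgCl2, 500 μM TCEP. Tag-cleaved 14-3-3σ truncated after T231 used for crystallography. Labelled peptides made by Fmoc solid-phase synthesis.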

Where [1] appears, read: Table S4, FA Kd / Kd of 1, replicate 1.
The mark [2] stands for this setting: Table S4, FA Kd / Kd of 1, replicate 2.
[3] abbreviates: Table S4, FA Kd / Kd of 1, replicate 3.
[4] abbreviates: Table S4, FA Kd of peptide divided by Kd of 1, mean of n = 3.
Setting [5] is: Table S4, calculated from FA Kd, mean of n = 3.
[6] abbreviates: Table S4, from FA Kd, replicate 1.
The mark [7] stands for this setting: Table S4, from FA Kd, replicate 2.
Setting [8] is: Table S4, from FA Kd, replicate 3.
Where [9] appears, read: Table S4, ΔG minus ΔG of 1, FA, replicate 1.
Setting [10] is: Table S4, ΔG minus ΔG of 1, FA, replicate 2.
Where [11] appears, read: Table S4, ΔG minus ΔG of 1, FA, replicate 3.
[12] abbreviates: Table S4, ΔG of peptide minus ΔG of 1, FA, mean of n = 3.
[13] abbreviates: Table S2, calculated from FA KD, mean of n = 3.
[14] abbreviates: Table S2, from FA KD, replicate 1.
The mark [15] stands for this setting: Table S2, from FA KD, replicate 2.
Where [16] appears, read: Table S2, from FA KD, replicate 3.

`CCC[C@H](NC(=O)[C@H](N)CCCCN)C(=O)N[C@@H](Cc1ccc([N+](=O)[O-])cc1)C(=O)N[C@@H](C)C(=O)N[C@@H](COP(=O)(O)O)C(=O)N[C@@H](Cc1ccc([N+](=O)[O-])cc1)C(=O)N[C@@H](CO)CC(=O)NCCC(=O)N[C@@H](Cc1ccc([N+](=O)[O-])cc1)C(=O)N[C@@H](CCCCN)C(N)=O` [3a] (H-[dK][Nva][Phe(4-NO2)]A[pS][Phe(4-NO2)][β3hS][βAla][Phe(4-NO2)]K-NH2; N-terminus and C-terminus assumed): under “FA”, the “ΔΔG of point mutation (FA)” value is 0.0 ± 0.4 kcal/mol. For the same molecule, the “Affinity Kd” value by setting is: (FA, replicate 1) 100 nM; (FA, replicate 2) 42 nM; (FA, replicate 3) 72 nM. For the same molecule, the Kd (FA, mean of n = 3) came out at 71 nM. Also, the “Fold change to 1” value by setting is: under setting [1], 1.9; under setting [2], 0.6; under setting [3], 1.0; under setting [4], 1.2. For the same molecule, the ΔG is, setting by setting: under setting [5], -9.8 kcal/mol; under setting [6], -9.5 kcal/mol; under setting [7], -10.1 kcal/mol; under setting [8], -9.7 kcal/mol. The “ΔΔG to 1” value by setting is: under setting [9], 0.4 kcal/mol; under setting [10], -0.3 kcal/mol; under setting [11], 0.0 kcal/mol; under setting [12], 0.0 kcal/mol.
For the molecule `CCC[C@H](NC(=O)[C@H](N)CCCCN)C(=O)N[C@@H](Cc1ccc([N+](=O)[O-])cc1)C(=O)NC(Cc1cscn1)C(=O)N[C@@H](COP(=O)(O)O)C(=O)N[C@@H](Cc1ccc([N+](=O)[O-])cc1)C(=O)N[C@@H](CO)CC(=O)NCCC(=O)N[C@@H](C)C(=O)N[C@@H](CCCCN)C(N)=O` (stereo partly drawn) [5c] (H-[dK][Nva][Phe(4-NO2)][ξAla(4-thiazolyl)][pS][Phe(4-NO2)][β3hS][βAla]AK-NH2; N-terminus and C-terminus assumed), the “Affinity Kd” value runs as follows: (FA, replicate 1) 3200 nM; (FA, replicate 2) 2200 nM; (FA, replicate 3) 2900 nM. Besides, the Kd (FA, mean of n = 3) came out at 2800 nM. In addition, the “Fold change to 1” value is, setting by setting: under setting [1], 62.1; under setting [2], 31.0; under setting [3], 39.8; under setting [4], 44.3. In addition, the ΔG by setting is: under setting [5], -7.6 kcal/mol; under setting [6], -7.5 kcal/mol; under setting [7], -7.7 kcal/mol; under setting [8], -7.5 kcal/mol. Besides, the “ΔΔG to 1” value is listed as 2.4 kcal/mol under setting [9], 2.0 kcal/mol under setting [10], 2.2 kcal/mol under setting [11] and 2.2 kcal/mol under setting [12].
On to `CCC[C@H](NC(=O)[C@H](N)CCCCN)C(=O)N[C@@H](Cc1ccc([N+](=O)[O-])cc1)C(=O)NC(Cc1cscn1)C(=O)N[C@@H](COP(=O)(O)O)C(=O)N[C@@H](Cc1ccc([N+](=O)[O-])cc1)C(=O)NC(CO)CC(=O)NCCC(=O)N[C@@H](Cc1ccc([N+](=O)[O-])cc1)C(=O)N[C@@H](CCCCN)C(N)=O` (stereo partly drawn) [compound 1] (H-[dK][Nva][Phe(4-NO2)][ξAla(4-thiazolyl)][pS][Phe(4-NO2)][ξβ3hS][βAla][Phe(4-NO2)]K-NH2), for which the “ΔG (FA)” value (calculated from FA KD, mean of n = 3) was -10.5 kcal/mol; the “ΔG (FA)” value (from FA KD, replicate 1) is -10.6 kcal/mol; the “ΔG (FA)” value (from FA KD, replicate 2) was -10.6 kcal/mol; the “ΔG (FA)” value (from FA KD, replicate 3) is -10.4 kcal/mol. For the same molecule, the ΔG by setting is: under setting [13], -10,53 kcal/mol; under setting [14], -10,61 kcal/mol; under setting [15], -10,56 kcal/mol; under setting [16], -10,41 kcal/mol; under setting [5], -9.8 kcal/mol; under setting [6], -9.9 kcal/mol. Besides, the ΔG reads like this: under setting [7], -9.7 kcal/mol; under setting [8], -9.7 kcal/mol. For the same molecule, the “Affinity Kd” value worked out at 52 nM (FA, replicate 1); 71 nM (FA, replicate 2); 74 nM (FA, replicate 3). Further, the “free binding energy ΔG (FA)” value (from FA KD) is -10.5 kcal/mol.
With `CCC[C@H](NC(=O)[C@H](N)CCCCN)C(=O)N[C@@H](Cc1ccc([N+](=O)[O-])cc1)C(=O)NC(Cc1cscn1)C(=O)N[C@@H](COP(=O)(O)O)C(=O)N[C@@H](Cc1ccccc1)C(=O)N[C@@H](CO)CC(=O)NCCC(=O)N[C@@H](Cc1ccc([N+](=O)[O-])cc1)C(=O)N[C@@H](CCCCN)C(N)=O` (stereo partly drawn) [4b] (H-[dK][Nva][Phe(4-NO2)][ξAla(4-thiazolyl)][pS]F[β3hS][βAla][Phe(4-NO2)]K-NH2; N-terminus and C-terminus assumed), for the setting “FA”, the “ΔΔG of point mutation (FA)” value is -0.1 ± 0.3 kcal/mol. Moreover, the “Affinity Kd” value was 46 nM (FA, replicate 1); 33 nM (FA, replicate 2); 87 nM (FA, replicate 3). Also, the Kd (FA, mean of n = 3) is 55 nM. Moreover, the “Fold change to 1” value reads like this: under setting [1], 0.9; under setting [2], 0.5; under setting [3], 1.2; under setting [4], 0.8. Besides, the ΔG is recorded as -9.9 kcal/mol under setting [5], -10.0 kcal/mol under setting [6], -10.2 kcal/mol under setting [7] and -9.6 kcal/mol under setting [8]. The “ΔΔG to 1” value was -0.1 kcal/mol under setting [9], -0.5 kcal/mol under setting [10], 0.1 kcal/mol under setting [11] and -0.1 kcal/mol under setting [12].
On to `C[C@H](NC(=O)[C@H](CCCCN)NC(=O)[C@H](Cc1ccc([N+](=O)[O-])cc1)NC(=O)CCNC(=O)C[C@H](CO)NC(=O)[C@H](Cc1ccc([N+](=O)[O-])cc1)NC(=O)[C@H](COP(=O)(O)O)NC(=O)C(N)Cc1cscn1)C(=O)N[C@@H](CCCCNC(=S)Nc1ccc2c(c1)C(=O)OC21c2ccc(O)cc2Oc2cc(O)ccc21)C(N)=O` (stereo partly drawn) [2c] (H-[ξAla(4-thiazolyl)][pS][Phe(4-NO2)][β3hS][βAla][Phe(4-NO2)]KAK(FITC)-NH2), for which, under “FA, ΔG relative to the previously truncated peptide”, the “individual ΔΔG of removed residue” value is given as “only minor energy contributions”. The “Fold change to previous” value is recorded as 0,53 (Table S2, FA KD of peptide divided by KD of previous (one amino acid longer) peptide, mean of n = 3); 0,51 (Table S2, KD / KD of previous (one amino acid longer) peptide, replicate 1); 0,53 (Table S2, KD / KD of previous (one amino acid longer) peptide, replicate 2); 0,56 (Table S2, KD / KD of previous (one amino acid longer) peptide, replicate 3). For the same molecule, the ΔG is -9,90 kcal/mol under setting [13], -9,93 kcal/mol under setting [14], -9,88 kcal/mol under setting [15] and -9,88 kcal/mol under setting [16]. Also, the ΔΔG (to previous) is -0,40 kcal/mol (Table S2, ΔG minus ΔG of previous peptide, FA, replicate 1); -0,38 kcal/mol (Table S2, ΔG minus ΔG of previous peptide, FA, replicate 2); -0,34 kcal/mol (Table S2, ΔG minus ΔG of previous peptide, FA, replicate 3); -0,37 kcal/mol (Table S2, ΔG of peptide minus ΔG of previous (one amino acid longer) peptide, FA, mean of n = 3).
On to `CCC[C@H](NC(=O)[C@H](N)CCCCN)C(=O)N[C@@H](Cc1ccc([N+](=O)[O-])cc1)C(=O)NC(Cc1cscn1)C(=O)N[C@@H](COP(=O)(O)O)C(=O)N[C@@H](Cc1ccc([N+](=O)[O-])cc1)C(=O)N[C@@H](CO)CC(=O)NCCC(=O)N[C@@H](Cc1ccc(O)cc1)C(=O)N[C@@H](CCCCN)C(N)=O` (stereo partly drawn) [5a] (H-[dK][Nva][Phe(4-NO2)][ξAla(4-thiazolyl)][pS][Phe(4-NO2)][β3hS][βAla]YK-NH2; N-terminus and C-terminus assumed), for which the “Affinity Kd” value worked out at 1700 nM (FA, replicate 1); 1200 nM (FA, replicate 2); 1700 nM (FA, replicate 3). Further, the Kd (FA, mean of n = 3) stood at 1500 nM. The “Fold change to 1” value is, setting by setting: under setting [1], 33.2; under setting [2], 17.1; under setting [3], 22.5; under setting [4], 24.2. In addition, the ΔG is reported as -7.9 kcal/mol under setting [5], -7.9 kcal/mol under setting [6], -8.1 kcal/mol under setting [7] and -7.9 kcal/mol under setting [8]. The “ΔΔG to 1” value is given as 2.1 kcal/mol under setting [9], 1.7 kcal/mol under setting [10], 1.8 kcal/mol under setting [11] and 1.9 kcal/mol under setting [12]. Also, for the setting “replacement of nitro by hydroxy group at +4, compared with 5b, FA and ITC”, the “14-3-3 binding affinity, result in words” value is on record as “did not restore the binding affinity”.

(Values after paper PMC9667936, “Functional mapping of the 14-3-3 hub protein as a guide to design 14-3-3 molecular glues” (Chemical Science, 2022).)
